Assay [1] has as its target T1, TYR (Agaricus bisporus, UniProt C7FF04).
T1 construct: purchased Shanghai Yuanye Bio-Technology Co., Ltd. (Shanghai, China)
More on the design: method as in 2 sources, one per row (each row's own in cited_ref): ref [48] = [48]; PMID 34313364; doi:10.1002/ardp.202100204; 48. Krobthong S. Yingchutrakul Y. Samutrtai P. Choowongkomon K. The C-terminally shortened analogs of a hexapeptide derived from Lingzhi hydrolysate with enhanced tyrosinase-inhibitory activity Arch. ||| ref [16],[17] = [16]; PMID 33459057; doi:10.1080/10408398.2021.1871724; 16. Peng Z.Y. Wang G.C. Zeng Q.H. Li Y.F. Liu H.Q. Wang J.J. Zhao Y. A systematic review of synthetic tyrosinase inhibitors and their structure-activity relationship Crit. Rev. Food Sci. Nutr. 2021 62 || [17]; PMID 35603815; doi:10.1111/1750-3841.16160; 17. Xue W. Liu X. Zhao W. Yu Z. Identification and molecular mechanism of novel tyrosinase inhibitory peptides from collagen J. Food Sci. 2022 87 2744 2756 10.1111/1750-3841.16160 35603815. The conditions noted are these: ref [16],[17]; cited from earlier work. The text has this: Bioactive peptides are functional peptide fragments produced during the hydrolysis, cleavage, or maturation of proteins, and their relative molecular mass is usually less than 6000 Da.

For assay [2] the following is noted: ref [47]; cited from earlier work. The source says: Guo isolated and purified 29 antioxidant peptides from RJ and verified their antioxidant activity.
The target in assay [3] is T1, TYR. Put plainly: TYR inhibitory activity (L-DOPA oxidation). It counts as biochemical. The method, then:
Determination and calculation methods of TYR inhibitory activity were referred to the detection method of Ji and modified slightly. Briefly, the TYR was dissolved to prepare solutions using 0.05 M phosphate buffer saline (pH 6.8). Then, the mixed 40 μL of ERJ, 2 U/mL 100 μL of TYR, and 1.0 mmol/L 100 μL of L-DOPA were added in a 96-well plate, and the absorbance at 475 nm was measured immediately after 10 s and recorded as A1. The reaction system was incubated for 190 s at 25 °C and measured again and recorded as A2. We repeated the above steps by replacing the ERJ with buffer and measuring the absorbance value after 10 s, recorded as A3, and the absorbance value after 190 s as A4. The inhibition rate of ERJ on TYR was calculated according to the following equation:(1) Inhibition percentage (%)=(1−ΔA/ΔB) × 100% where, ΔA = A2 − A1, ΔB = A4 − A3.

Assay [4] relates to fungus, yeast, and bacteria. The conditions noted are these: ref [45],[46]; cited from earlier work.

Entries after “also recorded” stand apart in the source; their conditions may differ. Ends that are not written are not given here.

T1 sequence (C7FF04 2-392): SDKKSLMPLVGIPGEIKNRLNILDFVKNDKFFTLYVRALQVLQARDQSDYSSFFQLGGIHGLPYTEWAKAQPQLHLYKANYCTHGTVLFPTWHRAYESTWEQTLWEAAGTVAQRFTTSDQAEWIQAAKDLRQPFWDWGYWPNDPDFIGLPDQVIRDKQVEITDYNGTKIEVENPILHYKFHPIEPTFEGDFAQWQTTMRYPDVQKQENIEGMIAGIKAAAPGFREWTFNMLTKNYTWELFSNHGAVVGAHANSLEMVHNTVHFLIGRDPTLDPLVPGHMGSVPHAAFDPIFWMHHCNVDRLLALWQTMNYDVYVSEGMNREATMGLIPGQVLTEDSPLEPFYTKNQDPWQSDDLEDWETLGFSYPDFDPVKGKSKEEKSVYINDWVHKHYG

For the molecule `OC[C@H]1O[C@@H](Oc2ccc(O)cc2)[C@H](O)[C@@H](O)[C@@H]1O` [arbutin], at TYR [1], the “inhibitory effect on TYR activity (in words), literature” value is listed as “strong inhibitory effects”. For `Oc1ccc(O)cc1` [hydroquinone], the “inhibitory effect on TYR activity (in words), literature” value on TYR [1] is listed as “strong inhibitory effects”.

For Arg-Tyr, the “free radical scavenging ability” value in assay [2] is on record as “strong free radical scavenging ability”. For the molecule IIPFIF [IIPFIF], at TYR [3], the “TYR inhibitory activity (in words)” value was “maximum activity; also recorded: highest of the three peptides”. Consider ILFTLL [ILFTLL], for which the “TYR inhibitory activity (in words)” value on TYR [3] is reported as “lowest activity; also recorded: lowest of the three peptides”. Turning to Tyr-Tyr, in assay [2], the “free radical scavenging ability” value is recorded as “strong free radical scavenging ability”.

B1: MRJP-2: major royal jelly protein (protein, UniProt O77061 18-452, looked up)
Major royal jelly protein 2: AIVRENSPRNLEKSLNVIHEWKYFDYDFGSEERRQAAIQSGEYDHTKNYPFDVDQWRDKTFVTILRYDGVPSTLNVISGKTGKGGRLLKPYPDWSFAEFKDCSKIVSAFKIAIDKFDRLWVLDSGLVNRTVPVCAPKLHVFDLKTSNHLKQIEIPHDIAVNATTGKGGLVSLAVQAIDLANTLVYMADHKGDALIVYQNADDSFHRLTSNTFDYDPRYAKMTIDGESFTLKNGICGMALSPVTNNLYYSPLASHGLYYVNTAPFMKSQFGENNVQYQGSEDILNTQSLAKAVSKNGVLFVGLVGNSAVGCWNEHQSLQRQNLEMVAQNDRTLQMIAGMKIKEELPHFVGSNKPVKDEYMLVLSNRMQKIVNDDFNFDDVNFRILGANVKELIRNTHCVNNNQNDNIQNTNNQNDNNQKNNKKNANNQKNNNQNDN
Consider B1, for which the antibacterial properties result in assay [4] is “have antibacterial properties”.

B2: MRJP-4: major royal jelly protein (protein, UniProt Q17061 16-464, looked up)
Major royal jelly protein 4: QNIRGGVVRENSSGKNLTNTLNVIHKWKYLDYDFDNDERRQAAIQSGEYDRTKNYPLDVDQWHNKTFLAVIRYNGVPSSLNVVSDKTGNGGRLLQPYPDWSFAKYEDCSGIVSAHKIAIDEYERLWVLDSGLVNNTQPMCSPKLFAFDLNTSQLLKQVEIPHDVATTGKGELVSLTVQAMDSTNTMVYMVDNKNTLIIYQNADDSFHRLSSHTLNHNSDKMSDQQENLTLKEVDNKVYGMALSPVTHNLYYNSPSSENLYYVNTESLMKSENQGNDVQYERVQDVFDSQLTVKAVSKNGVLLFGLANNTLSCWNEHQSLDRQNIDVVARNEDTLQMVVSMKIKQNVPQSGRVNNTQRNEYLLALSDRNQNVLNNDLNLEHVNFQILGANVNDLIRNSRCANFDNQDNNHYNHNHNQARHSSKSDNQNNNQHNDQAHHSSKSNNRHNNND
As for B2, the antibacterial properties result in assay [4] was “have antibacterial properties”.

The record behind these values is PMC10252203, “Tyrosinase Inhibitory Peptides from Enzyme Hydrolyzed Royal Jelly: Production, Separation, Identification and Docking Analysis” (Foods, 2023).
